Measured values published in ChEMBL document CHEMBL6153137, “Design, Synthesis, and Biological Evaluation of Novel Orally Available Covalent CDK12/13 Dual Inhibitors for the Treatment of Tumors” (J Med Chem, 2025).
The source made the active and inactive calls. The calls are words filed in the database; no cut-off is given here.

Assays:
[1] = Cmax in male Sprague-Dawley rat at 10 mg/kg, po administered once daily via gavage for 28 days; type: ADME, organism-based; conditions: in vivo, time 28 day
[2] = Toxicity against male Sprague-Dawley rat assessed as increase in neutrophils content at 10 to 40 mg/kg, po administered once daily via gavage for 28 days and measured on day 29; type: organism-based; conditions: in vivo, 696 h, dose 10-40 mg/kg, time 29 day
[3] = Half life in male Sprague-Dawley rat at 10 mg/kg, po administered once daily via gavage for 28 days; type: ADME, organism-based; conditions: in vivo, time 28 day
[4] = Toxicity against female Sprague-Dawley rat assessed as effect on hemoglobin level at 7.5 to 30 mg/kg, po administered once daily via gavage for 28 days and measured on day 29; type: organism-based; conditions: in vivo, 696 h, dose 7.5-30 mg/kg, time 29 day
[5] = Toxicity against female Sprague-Dawley rat assessed as effect on monocytes level at 7.5 to 30 mg/kg, po administered once daily via gavage for 28 days and measured on day 29; type: organism-based; conditions: in vivo, 696 h, dose 7.5-30 mg/kg, time 29 day
[6] = Toxicity against female Sprague-Dawley rat assessed as effect on glucose level in blood at 7.5 to 30 mg/kg, po administered once daily via gavage for 28 days and measured on day 29; type: organism-based; conditions: in vivo, 696 h, dose 7.5-30 mg/kg, time 29 day
[7] = target: CDK2/Cyclin A2 (Homo sapiens) (UniProt P24941+P20248); assay: Inhibition of human recombinat N-terminal GST-tagged CDK2/C-terminal 8X His-tagged Cyclin A2 expressed in HEP Sf9 cells using ATP as substrate at 2 uM measured after 60 mins by ADP-Glo reagent based luminescence analysis
[8] = Toxicity against male Sprague-Dawley rat assessed as effect on chlorine level in blood at 10 to 40 mg/kg, po administered once daily via gavage for 28 days and measured on day 29; type: organism-based; conditions: in vivo, 696 h, dose 10-40 mg/kg, time 29 day
[9] = target: Cyclin-dependent kinase 12/13 (Homo sapiens) (UniProt Q14004+Q9NYV4); assay: Covalent inhibition of CDK12/13 in human SUM149PT cells assessed as reduction in level of phosphorylation of Ser2 on RNA Pol II CTD at 500 nM incubated for 12 hrs followed by drug wash-out and measured after 72 hrs by western blot analysis; type: cell-based
[10] = target: Mitogen-activated protein kinase 8 (Homo sapiens) (UniProt P45983); assay: Inhibition of JNK1 (unknown origin) at 5 uM by DiscoverX KinomeScan ScanMAX analysis
Sequence of Mitogen-activated protein kinase 8 (Homo sapiens) (P45983 whole entry): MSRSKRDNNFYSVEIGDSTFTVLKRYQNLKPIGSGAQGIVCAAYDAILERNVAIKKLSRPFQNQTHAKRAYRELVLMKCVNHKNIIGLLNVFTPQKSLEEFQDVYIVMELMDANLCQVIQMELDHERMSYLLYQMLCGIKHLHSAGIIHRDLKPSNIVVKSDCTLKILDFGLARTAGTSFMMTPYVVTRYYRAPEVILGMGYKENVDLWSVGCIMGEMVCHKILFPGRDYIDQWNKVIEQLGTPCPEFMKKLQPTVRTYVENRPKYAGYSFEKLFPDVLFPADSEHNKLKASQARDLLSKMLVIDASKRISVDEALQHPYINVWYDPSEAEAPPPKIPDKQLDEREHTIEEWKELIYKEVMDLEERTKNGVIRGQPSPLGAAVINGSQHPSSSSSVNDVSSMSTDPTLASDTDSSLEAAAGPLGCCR

[11] = Half life in female Sprague-Dawley rat at 7.5 mg/kg, po administered once daily via gavage for 28 days; type: ADME, organism-based; conditions: in vivo, time 28 day
OCI-AML-3 = assay: Antiproliferative activity against human OCI-AML-3 cells assessed as reduction in cell viability incubated for 7 days by CellTiter-Glo reagent based luminescence analysis; type: functional; conditions: OCI-AML-3, 168 h
[12] = Half life in male Sprague-Dawley rat at 20 mg/kg, po administered once daily via gavage for 28 days; type: ADME, organism-based; conditions: in vivo, time 28 day
[13] = Half life in male Sprague-Dawley rat at 40 mg/kg, po administered once daily via gavage for 28 days; type: ADME, organism-based; conditions: in vivo, time 28 day
[14] = target: CDK1/Cyclin A (Homo sapiens) (UniProt P06493+P20248); assay: Inhibition of human recombinant N-terminal GST-tagged CDK1/N-terminal GST-tagged and C-terminal 8X His-tagged Cyclin A2 expressed in HEP Sf9 cells using ATP as substrate at 2 uM measured after 60 mins by ADP-Glo reagent based luminescence analysis
Sequence of CDK1/Cyclin A (Homo sapiens) (P06493 whole entry, looked up): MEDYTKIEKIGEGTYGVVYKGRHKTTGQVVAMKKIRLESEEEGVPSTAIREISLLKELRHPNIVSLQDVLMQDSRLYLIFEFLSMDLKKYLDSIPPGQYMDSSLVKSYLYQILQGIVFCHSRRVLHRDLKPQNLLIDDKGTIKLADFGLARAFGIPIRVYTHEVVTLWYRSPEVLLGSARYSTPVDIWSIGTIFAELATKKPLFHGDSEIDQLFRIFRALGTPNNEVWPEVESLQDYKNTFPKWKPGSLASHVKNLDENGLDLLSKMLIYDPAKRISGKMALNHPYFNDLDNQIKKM
Sequence of CDK1/Cyclin A (Homo sapiens) (P20248 whole entry, looked up): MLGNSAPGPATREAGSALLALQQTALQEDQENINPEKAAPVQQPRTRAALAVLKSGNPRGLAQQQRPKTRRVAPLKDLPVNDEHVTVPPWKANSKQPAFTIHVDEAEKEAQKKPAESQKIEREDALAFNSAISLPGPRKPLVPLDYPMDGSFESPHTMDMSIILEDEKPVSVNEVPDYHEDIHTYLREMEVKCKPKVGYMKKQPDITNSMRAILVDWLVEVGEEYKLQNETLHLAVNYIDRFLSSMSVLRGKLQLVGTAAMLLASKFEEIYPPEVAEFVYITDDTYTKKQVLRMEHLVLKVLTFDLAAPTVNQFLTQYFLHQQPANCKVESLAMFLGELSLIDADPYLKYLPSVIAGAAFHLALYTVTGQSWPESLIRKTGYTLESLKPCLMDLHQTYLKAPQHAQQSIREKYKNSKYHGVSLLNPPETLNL

[15] = Cmax in female Sprague-Dawley rat at 15 mg/kg, po administered via gavage and measured on day 1; type: ADME, organism-based; conditions: in vivo, time 1 day
[16] = AUC(0 to t) in female Sprague-Dawley rat at 7.5 mg/kg, po administered via gavage and measured on day 1; type: ADME, organism-based; conditions: in vivo, 24 h, time 1 day
MV4-11 = assay: Antitumor activity against human MV4-11 cells xenografted in Balb/c nude mouse assessed as inhibition of tumor growth at 30 mg/kg, po administered once daily via gavage and measured on day 21; type: functional; conditions: MV4-11, 504 h, time 21 day, read-out: TGI
[17] = AUC(0 to t) in female Sprague-Dawley rat at 15 mg/kg, po administered once daily via gavage for 28 days; type: ADME, organism-based; conditions: in vivo, 672 h, time 28 day
[18] = AUC in Balb/c mouse xenografted with human SUM149PT cells at 30 mg/kg, po administered once daily via gavage; type: ADME, organism-based; conditions: in vivo
[19] = AUC(0 to t) in male Sprague-Dawley rat at 20 mg/kg, po administered once daily via gavage for 28 days; type: ADME, organism-based; conditions: in vivo, 672 h, time 28 day
[20] = target: CDK1/Cyclin E (Homo sapiens) (UniProt P06493+P24864); assay: Inhibition of human recombinant N-terminal GST-tagged CDK1/Cyclin E1 expressed in HEP Sf9 cells using ATP as substrate at 2 uM measured after 60 mins by ADP-Glo reagent based luminescence analysis
Sequence of CDK1/Cyclin E (Homo sapiens) (P06493 whole entry, looked up): as the sequence (P06493 whole entry, looked up) above
Sequence of CDK1/Cyclin E (Homo sapiens) (P24864 whole entry, looked up): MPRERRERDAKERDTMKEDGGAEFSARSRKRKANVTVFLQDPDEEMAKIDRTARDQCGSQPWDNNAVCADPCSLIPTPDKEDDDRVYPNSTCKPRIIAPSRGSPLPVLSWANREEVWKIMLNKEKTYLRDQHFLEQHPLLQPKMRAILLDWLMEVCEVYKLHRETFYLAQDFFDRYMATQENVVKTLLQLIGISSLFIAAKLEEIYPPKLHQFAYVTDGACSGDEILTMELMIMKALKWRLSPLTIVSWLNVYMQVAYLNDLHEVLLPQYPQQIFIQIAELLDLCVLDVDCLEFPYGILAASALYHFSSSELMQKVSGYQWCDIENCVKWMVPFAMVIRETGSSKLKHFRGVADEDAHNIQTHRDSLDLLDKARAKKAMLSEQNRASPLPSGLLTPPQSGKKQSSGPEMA

[21] = target: CDK12/Cyclin K (Homo sapiens) (UniProt O75909+Q9NYV4); assay: Inhibition of N-terminal GST-tagged human recombinant CDK12/N-terminal FLAG and C-terminal 6X His-tagged Cyclin K expressed in HEP Sf9 cells using ATP as substrate at 2 uM measured after 60 mins by ADP-Glo reagent based luminescence assay
Sequence of CDK12/Cyclin K (Homo sapiens) (O75909 whole entry, looked up): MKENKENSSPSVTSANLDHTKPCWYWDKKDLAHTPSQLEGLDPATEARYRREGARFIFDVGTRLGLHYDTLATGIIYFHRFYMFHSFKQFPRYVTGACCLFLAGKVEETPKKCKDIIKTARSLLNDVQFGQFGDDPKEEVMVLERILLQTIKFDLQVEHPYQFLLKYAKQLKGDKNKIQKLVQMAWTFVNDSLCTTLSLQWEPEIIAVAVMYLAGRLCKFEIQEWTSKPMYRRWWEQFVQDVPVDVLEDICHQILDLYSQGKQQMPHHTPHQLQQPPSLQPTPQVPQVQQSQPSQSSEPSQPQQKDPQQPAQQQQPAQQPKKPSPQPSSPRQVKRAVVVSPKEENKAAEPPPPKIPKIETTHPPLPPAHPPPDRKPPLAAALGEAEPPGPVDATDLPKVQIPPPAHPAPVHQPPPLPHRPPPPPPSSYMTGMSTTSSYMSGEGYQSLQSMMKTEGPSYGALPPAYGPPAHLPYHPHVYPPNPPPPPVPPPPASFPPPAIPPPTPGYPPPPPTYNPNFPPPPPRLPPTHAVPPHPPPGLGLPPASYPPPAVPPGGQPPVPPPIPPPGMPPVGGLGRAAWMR
Sequence of CDK12/Cyclin K (Homo sapiens) (Q9NYV4 whole entry, looked up): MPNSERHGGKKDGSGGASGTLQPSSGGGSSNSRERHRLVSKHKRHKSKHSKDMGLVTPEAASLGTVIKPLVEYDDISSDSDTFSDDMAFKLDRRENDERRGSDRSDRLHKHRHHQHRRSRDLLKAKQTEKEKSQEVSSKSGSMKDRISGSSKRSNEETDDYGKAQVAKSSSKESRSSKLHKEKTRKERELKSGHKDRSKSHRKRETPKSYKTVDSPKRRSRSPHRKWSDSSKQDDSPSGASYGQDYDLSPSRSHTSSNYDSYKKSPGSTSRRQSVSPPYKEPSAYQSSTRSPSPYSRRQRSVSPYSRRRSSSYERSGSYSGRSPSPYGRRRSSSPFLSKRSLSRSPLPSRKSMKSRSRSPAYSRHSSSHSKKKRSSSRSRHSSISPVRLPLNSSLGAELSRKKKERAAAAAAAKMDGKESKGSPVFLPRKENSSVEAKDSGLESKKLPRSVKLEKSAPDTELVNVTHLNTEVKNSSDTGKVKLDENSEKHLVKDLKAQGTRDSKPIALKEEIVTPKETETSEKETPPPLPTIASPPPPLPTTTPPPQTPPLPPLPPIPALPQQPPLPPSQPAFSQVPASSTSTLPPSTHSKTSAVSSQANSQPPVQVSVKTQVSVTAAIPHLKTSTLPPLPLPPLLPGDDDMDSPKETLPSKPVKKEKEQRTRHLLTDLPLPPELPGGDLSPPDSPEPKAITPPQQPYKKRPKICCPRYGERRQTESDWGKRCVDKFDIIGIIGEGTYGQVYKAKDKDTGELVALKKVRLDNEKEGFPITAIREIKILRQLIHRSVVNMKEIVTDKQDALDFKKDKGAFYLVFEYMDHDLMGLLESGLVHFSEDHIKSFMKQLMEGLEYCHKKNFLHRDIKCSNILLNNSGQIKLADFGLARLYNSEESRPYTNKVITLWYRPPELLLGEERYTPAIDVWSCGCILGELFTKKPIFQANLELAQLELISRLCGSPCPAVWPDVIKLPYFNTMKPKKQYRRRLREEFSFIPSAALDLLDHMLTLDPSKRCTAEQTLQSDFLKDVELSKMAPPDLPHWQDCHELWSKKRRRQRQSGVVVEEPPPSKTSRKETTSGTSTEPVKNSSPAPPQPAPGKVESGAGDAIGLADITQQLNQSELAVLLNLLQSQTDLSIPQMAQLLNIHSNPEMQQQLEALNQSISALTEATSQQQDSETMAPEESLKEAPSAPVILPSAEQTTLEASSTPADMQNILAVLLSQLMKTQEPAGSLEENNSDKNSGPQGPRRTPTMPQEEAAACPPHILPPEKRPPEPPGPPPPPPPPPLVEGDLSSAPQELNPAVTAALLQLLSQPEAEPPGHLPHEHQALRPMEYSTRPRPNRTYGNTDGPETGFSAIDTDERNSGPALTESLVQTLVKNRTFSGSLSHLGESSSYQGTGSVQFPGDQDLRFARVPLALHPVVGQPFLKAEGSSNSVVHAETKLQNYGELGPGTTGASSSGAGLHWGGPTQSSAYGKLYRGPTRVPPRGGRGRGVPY

[22] = Toxicity against female Sprague-Dawley rat assessed as effect on mean corpuscular volume at 7.5 to 30 mg/kg, po administered once daily via gavage for 28 days and measured on day 29; type: organism-based; conditions: in vivo, 696 h, dose 7.5-30 mg/kg, time 29 day
[23] = Toxicity against male Sprague-Dawley rat assessed as effect on body weight at 10 to 20 mg/kg, po administered once daily via gavage for 28 days and measured twice a week; type: organism-based; conditions: in vivo, 672 h, dose 10-20 mg/kg, time 28 day
[24] = GSH reactivity assessed as half life to adduct formation at 0.1 uM by LC-MS/MS analysis; type: physicochemical
[25] = Toxicity against Balb/c mouse xenografted with human MV4-11 cells assessed as effect on body weight at 15 to 30 mg/kg, po administered once daily via gavage and measured every 3 days for 3 weeks; type: organism-based; conditions: in vivo, 504 h, dose 15-30 mg/kg
Mus musculus = assay: In vivo inhibition of CDK12/13 in Balb/c mouse xenografted with human SUM149PT cells assessed as reduction in ATM gene expression at 15 to 30 mg/kg, po administered once daily via gavage and measured at 4 hrs post-last drug dosage by qPCR analysis; type: functional, organism-based; conditions: dose 15-30 mg/kg
[26] = Ratio of drug level in tumor to plasma in Balb/c mouse xenografted with human MV4-11 cells at 30 mg/kg, po administered via gavage and measured after 2 hrs; type: ADME, organism-based
[27] = Toxicity against male Sprague-Dawley rat assessed as effect on blood urea nitrogen level at 10 to 40 mg/kg, po administered once daily via gavage for 28 days and measured on day 29; type: organism-based; conditions: in vivo, 696 h, dose 10-40 mg/kg, time 29 day
[28] = AUC(0 to t) in male Sprague-Dawley rat at 10 mg/kg, po administered once daily via gavage for 28 days; type: ADME, organism-based; conditions: in vivo, 672 h, time 28 day
[29] = Toxicity against female Sprague-Dawley rat assessed as effect on phosphorus level in blood at 7.5 to 30 mg/kg, po administered once daily via gavage for 28 days and measured on day 29; type: organism-based; conditions: in vivo, 696 h, dose 7.5-30 mg/kg, time 29 day
[30] = Toxicity against female Sprague-Dawley rat assessed as effect on hematocrit level at 7.5 to 30 mg/kg, po administered once daily via gavage for 28 days and measured on day 29; type: organism-based; conditions: in vivo, 696 h, dose 7.5-30 mg/kg, time 29 day

## C=CC(=O)N1CCc2c(ncnc2N2CC[C@@H](Nc3ncc(Cl)c(OC)n3)C2)C1
[1]
  Cmax: 576 ng/mL
[2]
  Activity: Toxic
[3]
  half-life: 3.5 h
[4]
  Activity: Non-toxic
[5]
  Activity: Non-toxic
[6]
  Activity: Non-toxic
[7]
  inhibition: 1%
[8]
  Activity: Non-toxic
[9]
  inhibition: Active
[10]
  inhibition: Active
[11]
  half-life: 2 h
OCI-AML-3
  IC50: 137 nM
[12]
  half-life: 4.2 h
[13]
  half-life: 6.9 h
[14]
  inhibition: 10%
[15]
  Cmax: 1280 ng/mL
[16]
  AUCt: 1640 ng·h/mL
MV4-11
  inhibition in vivo at 30 mg/kg: 95%
[17]
  AUCt: 3220 ng·h/mL
[18]
  AUC: 2690 ng·h/mL
[19]
  AUCt: 2870 ng·h/mL
[20]
  inhibition: 24%
[21]
  inhibition: 97%
[22]
  Activity: Non-toxic
[23]
  Activity: Non-toxic
[24]
  t1/2: 1.48 h
[25]
  Activity: Non-toxic
Mus musculus
  inhibition: Active
[26]
  Kp at 2 h: 0.46
[27]
  Activity: Non-toxic
[28]
  AUCt: 1330 ng·h/mL
[29]
  Activity: Non-toxic
[30]
  Activity: Non-toxic
